Data published in patent publication US6376426B1, “Herbicidal 3-(heterocycl-1-yl)-uracils” (BASF Aktiengesellschaft, priority 1999, dated 2002).

How the values were obtained:
Type in all cases: in vivo
Galium aparine [1] = experiment: Pre-emergence herbicidal test, GALAP; design: key to herbicidal effect (0-9 scale) GALAP / herbicidal rating GALAP: A rating 0 indicates growth as untreated control; a rating 9 indicates death; conditions: PRE, 21 days after spraying
Protocol: (§1) To evaluate their herbicidal activity, compounds according to the invention are tested using a representative range of plants:
(§2) The pre-emergence tests involve spraying a liquid formulation of the compound onto the soil in which the seeds of the plant species mentioned above has recently been sown.
(§3) The soil used in the tests is a prepared horticultural loam. The formulations used in the tests are prepared from solutions of the test compounds in acetone containing 0.4% by weight of an alkylphenol/ethylene oxide condensate available under the trade mark TRITON X-155. […] In these tests untreated sown soil are used as controls.
(§4) The herbicidal effects of the test compounds are assessed visually twenty-one days after spraying the foliage and the soil and are recorded on a 0-9 scale. A rating 0 indicates growth as untreated control, a rating 9 indicates death. An increase of 1 unit on the linear scale approximates to a 10% increase in the level of effect.

Echinochloa crus-galli [2] = experiment: Post-emergence herbicidal test, ECHCG; conditions: 21 days after spraying
Protocol: as §1
(§5) […] After spraying, the plants are placed on greenhouse benches and are cared for in the usual manner, commensurate with conventional greenhouse practices.
as §4

Hordeum vulgare [3] = experiment: Pre-emergence herbicidal test, HORVW; design: key: A rating 0 indicates growth as untreated control; a rating 9 indicates death; conditions: 21 days after spraying
Protocol: as §1, §2, §3, §4

Galium aparine [4] = experiment: Post-emergence herbicidal test, GALAP; conditions: POST, 21 days after spraying
Protocol: as §1, §5, §4

Zea mays [5] = experiment: Post-emergence herbicidal test, ZEAMX; conditions: 21 days after spraying
Protocol: as §1, §5, §4

Glycine max [6] = experiment: Post-emergence herbicidal test, GLXMA; conditions: 21 days after spraying
Protocol: as §1, §5, §4

Triticum aestivum [7] = experiment: Post-emergence herbicidal test, TRZAW; conditions: POST, 21 days after spraying
Protocol: as §1, §5, §4

Glycine max [8] = experiment: Pre-emergence herbicidal test, GLXMA; design: key to herbicidal effect (0-9 scale) GLXMA / herbicidal rating GLXMA: A rating 0 indicates growth as untreated control; a rating 9 indicates death; conditions: PRE, 21 days after spraying
Protocol: as §1, §2, §3, §4

Abutilon theophrasti [9] = experiment: Post-emergence herbicidal test, ABUTH; design: key to herbicidal effect (0-9 scale) ABUTH / herbicidal rating ABUTH: A rating 0 indicates growth as untreated control; a rating 9 indicates death; conditions: POST, 21 days after spraying
Protocol: as §1, §5, §4

Ipomoea hederacea [10] = experiment: Pre-emergence herbicidal test, IPOHE; conditions: 21 days after spraying
Protocol: as §1, §2, §3, §4

Matricaria inodora [11] = experiment: Pre-emergence herbicidal test, MATIN; conditions: PRE, 21 days after spraying
Protocol: as §1, §2, §3, §4

Abutilon theophrasti [12] = experiment: Pre-emergence herbicidal test, ABUTH; conditions: PRE, 21 days after spraying
Protocol: as §1, §2, §3, §4

Ipomoea hederacea [13] = experiment: Post-emergence herbicidal test, IPOHE; design: key to herbicidal effect (0-9 scale) IPOHE / herbicidal rating IPOHE: A rating 0 indicates growth as untreated control; a rating 9 indicates death; conditions: POST, 21 days after spraying
Protocol: as §1, §5, §4

Echinochloa crus-galli [14] = experiment: Pre-emergence herbicidal test, ECHCG; conditions: 21 days after spraying
Protocol: as §1, §2, §3, §4

Matricaria inodora [15] = experiment: Post-emergence herbicidal test, MATIN; conditions: POST, 21 days after spraying
Protocol: as §1, §5, §4

Hordeum vulgare [16] = experiment: Post-emergence herbicidal test, HORVW; conditions: 21 days after spraying
Protocol: as §1
These acetone solutions are diluted with water and the resulting formulations applied at dosage levels equivalent to about 1000, 800, 400, 250 or 100 g/ha per hectare of test compound per pot. After spraying, the plants are placed on greenhouse benches and are cared for in the usual manner, commensurate with conventional greenhouse practices.
as §4

Setaria viridis [17] = experiment: Pre-emergence herbicidal test, SETVI; conditions: PRE, 21 days after spraying
Protocol: as §1, §2, §3, §4

Zea mays [18] = experiment: Pre-emergence herbicidal test, ZEAMX; conditions: PRE, 21 days after spraying
Protocol: as §1, §2, §3, §4

Alopecurus myosuroides [19] = experiment: Post-emergence herbicidal test, ALOMY; conditions: 21 days after spraying
Protocol: as §1, §5, §4

Triticum aestivum [20] = experiment: Pre-emergence herbicidal test, TRZAW; design: key: A rating 0 indicates growth as untreated control; a rating 9 indicates death; conditions: 21 days after spraying
Protocol: as §1, §2, §3, §4

Stellaria media [21] = experiment: Post-emergence herbicidal test, STEME; conditions: POST, 21 days after spraying
Protocol: as §1, §5, §4

Alopecurus myosuroides [22] = experiment: Pre-emergence herbicidal test, ALOMY; conditions: PRE, 21 days after spraying
Protocol: as §1, §2, §3, §4

Stellaria media [23] = experiment: Pre-emergence herbicidal test, STEME; conditions: PRE, 21 days after spraying
Protocol: as §1, §2, §3, §4

Setaria viridis [24] = experiment: Post-emergence herbicidal test, SETVI; design: key to herbicidal effect (0-9 scale) SETVI / herbicidal rating SETVI: A rating 0 indicates growth as untreated control; a rating 9 indicates death; conditions: POST, 21 days after spraying
Protocol: as §1, §5, §4

Cn1c(C(F)(F)F)cc(=O)n(-n2ccc3ccc(Br)cc32)c1=O [Example 6]
herbicidal effect (0-9 scale) GALAP (Galium aparine [1]; 100 g/ha): 2
herbicidal effect (0-9 scale) GALAP (Galium aparine [1]; 400 g/ha): 9
herbicidal effect (0-9 scale) ECHCG (Echinochloa crus-galli [2]; 100 g/ha): 4
herbicidal effect (0-9 scale) ECHCG (Echinochloa crus-galli [2]; 400 g/ha): 8
herbicidal effect (0-9 scale) HORVW (Hordeum vulgare [3]; 100 g/ha): 0
herbicidal effect (0-9 scale) HORVW (Hordeum vulgare [3]; 400 g/ha): 1
herbicidal effect (0-9 scale) GALAP (Galium aparine [4]; 100 g/ha): 5
herbicidal effect (0-9 scale) GALAP (Galium aparine [4]; 400 g/ha): 8
herbicidal effect (0-9 scale) ZEAMX (Zea mays [5]; 100 g/ha): 2
herbicidal effect (0-9 scale) ZEAMX (Zea mays [5]; 400 g/ha): 3
herbicidal effect (0-9 scale) GLXMA (Glycine max [6]; 100 g/ha): 4
herbicidal effect (0-9 scale) GLXMA (Glycine max [6]; 400 g/ha): 8
herbicidal effect (0-9 scale) TRZAW (Triticum aestivum [7]; 100 g/ha): 2
herbicidal effect (0-9 scale) TRZAW (Triticum aestivum [7]; 400 g/ha): 3
herbicidal effect (0-9 scale) GLXMA (Glycine max [8]; 100 g/ha): 0
herbicidal effect (0-9 scale) GLXMA (Glycine max [8]; 400 g/ha): 0
herbicidal effect (0-9 scale) ABUTH (Abutilon theophrasti [9]; 100 g/ha): 9
herbicidal effect (0-9 scale) ABUTH (Abutilon theophrasti [9]; 400 g/ha): 9
herbicidal effect (0-9 scale) IPOHE (Ipomoea hederacea [10]; 100 g/ha): 1
herbicidal effect (0-9 scale) IPOHE (Ipomoea hederacea [10]; 400 g/ha): 2
herbicidal effect (0-9 scale) MATIN (Matricaria inodora [11]; 100 g/ha): 1
herbicidal effect (0-9 scale) MATIN (Matricaria inodora [11]; 400 g/ha): 5
herbicidal effect (0-9 scale) ABUTH (Abutilon theophrasti [12]; 100 g/ha): 6
herbicidal effect (0-9 scale) ABUTH (Abutilon theophrasti [12]; 400 g/ha): 8
herbicidal effect (0-9 scale) IPOHE (Ipomoea hederacea [13]; 100 g/ha): 8
herbicidal effect (0-9 scale) IPOHE (Ipomoea hederacea [13]; 400 g/ha): 9
herbicidal effect (0-9 scale) ECHCG (Echinochloa crus-galli [14]; 100 g/ha): 1
herbicidal effect (0-9 scale) ECHCG (Echinochloa crus-galli [14]; 400 g/ha): 5
herbicidal effect (0-9 scale) MATIN (Matricaria inodora [15]; 100 g/ha): 3
herbicidal effect (0-9 scale) MATIN (Matricaria inodora [15]; 400 g/ha): 5
herbicidal effect (0-9 scale) HORVW (Hordeum vulgare [16]; 100 g/ha): 3
herbicidal effect (0-9 scale) HORVW (Hordeum vulgare [16]; 400 g/ha): 3
herbicidal effect (0-9 scale) SETVI (Setaria viridis [17]; 100 g/ha): 5
herbicidal effect (0-9 scale) SETVI (Setaria viridis [17]; 400 g/ha): 8
herbicidal effect (0-9 scale) ZEAMX (Zea mays [18]; 100 g/ha): 2
herbicidal effect (0-9 scale) ZEAMX (Zea mays [18]; 400 g/ha): 4
herbicidal effect (0-9 scale) ALOMY (Alopecurus myosuroides [19]; 100 g/ha): 2
herbicidal effect (0-9 scale) ALOMY (Alopecurus myosuroides [19]; 400 g/ha): 4
herbicidal effect (0-9 scale) TRZAW (Triticum aestivum [20]; 100 g/ha): 0
herbicidal effect (0-9 scale) TRZAW (Triticum aestivum [20]; 400 g/ha): 0
herbicidal effect (0-9 scale) STEME (Stellaria media [21]; 100 g/ha): 5
herbicidal effect (0-9 scale) STEME (Stellaria media [21]; 400 g/ha): 8
herbicidal effect (0-9 scale) ALOMY (Alopecurus myosuroides [22]; 100 g/ha): 1
herbicidal effect (0-9 scale) ALOMY (Alopecurus myosuroides [22]; 400 g/ha): 3
herbicidal effect (0-9 scale) STEME (Stellaria media [23]; 100 g/ha): 1
herbicidal effect (0-9 scale) STEME (Stellaria media [23]; 400 g/ha): 4
herbicidal effect (0-9 scale) SETVI (Setaria viridis [24]; 100 g/ha): 7
herbicidal effect (0-9 scale) SETVI (Setaria viridis [24]; 400 g/ha): 9
